# In patent publication US20250115595A1, “INHIBITORS OF HYPOXIA-INDUCIBLE FACTORS” (The Johns Hopkins University, priority 2021, published 2025):
# Tested on: cytokine mRNAs
# Test: RT-qPCR array of mouse cytokines and chemokines in Hepa1-6 tumors
# Type: in vivo
# Description: Total RNA from Hepa1-6 tumors was analyzed using the RT2 Profiler PCR Array of Mouse Cytokines and Chemokines (Qiagen, catalog number 330231 PAMM-150ZA) according to the manufacturer's instructions.
# [1] = array of 84 cytokines and chemokines
smiles,measurement,setting,value
"Brc1ccc2c(-c3csc(-c4c[nH]c5c(Br)cccc45)n3)c[nH]c2c1 [Compound 32-134D, 4-(6-bromo-1H-indol-3-yl)-2-(7-bromo-1H-indol-3-yl)thiazole]",Mstn mRNA Fold Up- or Down-Regulation Test Group/Control Group,"Hepa1-6 tumors, vs vehicle",−4.85
same,Mstn mRNA X axis (Log2(fold change)),"Hepa1-6 tumors, vs vehicle",−2.28
same,Nodal mRNA Fold Change Test Group/Control Group,"Hepa1-6 tumors, vs vehicle",0.29
same,Nodal mRNA Fold Up- or Down-Regulation Test Group/Control Group,"Hepa1-6 tumors, vs vehicle",−3.43
same,Nodal mRNA X axis (Log2(fold change)),"Hepa1-6 tumors, vs vehicle",−1.78
same,Osm mRNA Fold Change Test Group/Control Group,"Hepa1-6 tumors, vs vehicle",0.38
same,Osm mRNA Fold Up- or Down-Regulation Test Group/Control Group,"Hepa1-6 tumors, vs vehicle",−2.65
same,Osm mRNA X axis (Log2(fold change)),"Hepa1-6 tumors, vs vehicle",−1.40
same,Pf4 mRNA Fold Change Test Group/Control Group,"Hepa1-6 tumors, vs vehicle",0.68
same,Pf4 mRNA Fold Up- or Down-Regulation Test Group/Control Group,"Hepa1-6 tumors, vs vehicle",−1.47
same,Pf4 mRNA X axis (Log2(fold change)),"Hepa1-6 tumors, vs vehicle",−0.56
same,Ppbp mRNA Fold Change Test Group/Control Group,"Hepa1-6 tumors, vs vehicle",0.64
same,Ppbp mRNA Fold Up- or Down-Regulation Test Group/Control Group,"Hepa1-6 tumors, vs vehicle",−1.56
same,Ppbp mRNA X axis (Log2(fold change)),"Hepa1-6 tumors, vs vehicle",−0.65
same,Spp1 mRNA Fold Change Test Group/Control Group,"Hepa1-6 tumors, vs vehicle",1.71
same,Spp1 mRNA Fold Up- or Down-Regulation Test Group/Control Group,"Hepa1-6 tumors, vs vehicle",1.71
same,Spp1 mRNA X axis (Log2(fold change)),"Hepa1-6 tumors, vs vehicle",0.77
same,Tgfb2 mRNA Fold Change Test Group/Control Group,"Hepa1-6 tumors, vs vehicle",0.74
same,Tgfb2 mRNA Fold Up- or Down-Regulation Test Group/Control Group,"Hepa1-6 tumors, vs vehicle",−1.36
same,Tgfb2 mRNA X axis (Log2(fold change)),"Hepa1-6 tumors, vs vehicle",−0.44
same,Thpo mRNA Fold Change Test Group/Control Group,"Hepa1-6 tumors, vs vehicle",0.55
same,Thpo mRNA Fold Up- or Down-Regulation Test Group/Control Group,"Hepa1-6 tumors, vs vehicle",−1.82
same,Thpo mRNA X axis (Log2(fold change)),"Hepa1-6 tumors, vs vehicle",−0.87
same,Tnf mRNA Fold Change Test Group/Control Group,"Hepa1-6 tumors, vs vehicle",0.25
same,Tnf mRNA Fold Up- or Down-Regulation Test Group/Control Group,"Hepa1-6 tumors, vs vehicle",−4.00
same,Tnf mRNA X axis (Log2(fold change)),"Hepa1-6 tumors, vs vehicle",−2.00
same,Tnfrsf11b mRNA Fold Change Test Group/Control Group,"Hepa1-6 tumors, vs vehicle",0.25
same,Tnfrsf11b mRNA Fold Up- or Down-Regulation Test Group/Control Group,"Hepa1-6 tumors, vs vehicle",−4.07
same,Tnfrsf11b mRNA X axis (Log2(fold change)),"Hepa1-6 tumors, vs vehicle",−2.02
same,Tnfsf10 mRNA Fold Change Test Group/Control Group,"Hepa1-6 tumors, vs vehicle",1.02
same,Tnfsf10 mRNA Fold Up- or Down-Regulation Test Group/Control Group,"Hepa1-6 tumors, vs vehicle",1.02
same,Tnfsf10 mRNA X axis (Log2(fold change)),"Hepa1-6 tumors, vs vehicle",0.03
same,Tnfsf11 mRNA Fold Change Test Group/Control Group,"Hepa1-6 tumors, vs vehicle",0.38
same,Tnfsf11 mRNA Fold Up- or Down-Regulation Test Group/Control Group,"Hepa1-6 tumors, vs vehicle",−2.61
same,Tnfsf11 mRNA X axis (Log2(fold change)),"Hepa1-6 tumors, vs vehicle",−1.39
same,Tnfsf13b mRNA Fold Change Test Group/Control Group,"Hepa1-6 tumors, vs vehicle",0.88
same,Tnfsf13b mRNA Fold Up- or Down-Regulation Test Group/Control Group,"Hepa1-6 tumors, vs vehicle",−1.13
same,Tnfsf13b mRNA X axis (Log2(fold change)),"Hepa1-6 tumors, vs vehicle",−0.18
same,Vegfa mRNA Fold Change Test Group/Control Group,"Hepa1-6 tumors, vs vehicle",0.40
same,Vegfa mRNA Fold Up- or Down-Regulation Test Group/Control Group,"Hepa1-6 tumors, vs vehicle",−2.52
same,Vegfa mRNA X axis (Log2(fold change)),"Hepa1-6 tumors, vs vehicle",−1.33
same,Xcl1 mRNA Fold Change Test Group/Control Group,"Hepa1-6 tumors, vs vehicle",1.47
same,Xcl1 mRNA Fold Up- or Down-Regulation Test Group/Control Group,"Hepa1-6 tumors, vs vehicle",1.47
same,Xcl1 mRNA X axis (Log2(fold change)),"Hepa1-6 tumors, vs vehicle",0.56
same,lfna2 mRNA Fold Change Test Group/Control Group,"Hepa1-6 tumors, vs vehicle",0.26
same,lfna2 mRNA Fold Up- or Down-Regulation Test Group/Control Group,"Hepa1-6 tumors, vs vehicle",−3.85
same,lfna2 mRNA X axis (Log2(fold change)),"Hepa1-6 tumors, vs vehicle",−1.95
same,lfng mRNA Fold Change Test Group/Control Group,"Hepa1-6 tumors, vs vehicle",1.63
same,lfng mRNA Fold Up- or Down-Regulation Test Group/Control Group,"Hepa1-6 tumors, vs vehicle",1.63
same,lfng mRNA X axis (Log2(fold change)),"Hepa1-6 tumors, vs vehicle",0.70
same,ll1a mRNA Fold Change Test Group/Control Group,"Hepa1-6 tumors, vs vehicle",0.68
same,ll1a mRNA Fold Up- or Down-Regulation Test Group/Control Group,"Hepa1-6 tumors, vs vehicle",−1.47
same,ll1a mRNA X axis (Log2(fold change)),"Hepa1-6 tumors, vs vehicle",−0.56
same,ll1b mRNA Fold Change Test Group/Control Group,"Hepa1-6 tumors, vs vehicle",0.34
same,ll1b mRNA Fold Up- or Down-Regulation Test Group/Control Group,"Hepa1-6 tumors, vs vehicle",−2.92
same,ll1b mRNA X axis (Log2(fold change)),"Hepa1-6 tumors, vs vehicle",−1.55
same,ll1rn mRNA Fold Change Test Group/Control Group,"Hepa1-6 tumors, vs vehicle",0.68
same,ll1rn mRNA Fold Up- or Down-Regulation Test Group/Control Group,"Hepa1-6 tumors, vs vehicle",−1.47
same,ll1rn mRNA X axis (Log2(fold change)),"Hepa1-6 tumors, vs vehicle",−0.56
same,ll2 mRNA Fold Change Test Group/Control Group,"Hepa1-6 tumors, vs vehicle",0.30
same,ll2 mRNA Fold Up- or Down-Regulation Test Group/Control Group,"Hepa1-6 tumors, vs vehicle",−3.37
same,ll2 mRNA X axis (Log2(fold change)),"Hepa1-6 tumors, vs vehicle",−1.75
same,ll3 mRNA Fold Change Test Group/Control Group,"Hepa1-6 tumors, vs vehicle",0.36
same,ll3 mRNA Fold Up- or Down-Regulation Test Group/Control Group,"Hepa1-6 tumors, vs vehicle",−2.77
same,ll3 mRNA X axis (Log2(fold change)),"Hepa1-6 tumors, vs vehicle",−1.47
same,ll4 mRNA Fold Change Test Group/Control Group,"Hepa1-6 tumors, vs vehicle",0.34
same,ll4 mRNA Fold Up- or Down-Regulation Test Group/Control Group,"Hepa1-6 tumors, vs vehicle",−2.91
same,ll4 mRNA X axis (Log2(fold change)),"Hepa1-6 tumors, vs vehicle",−1.54
same,ll5 mRNA Fold Change Test Group/Control Group,"Hepa1-6 tumors, vs vehicle",0.42
same,ll5 mRNA Fold Up- or Down-Regulation Test Group/Control Group,"Hepa1-6 tumors, vs vehicle",−2.39
same,ll5 mRNA X axis (Log2(fold change)),"Hepa1-6 tumors, vs vehicle",−1.26
same,ll6 mRNA Fold Change Test Group/Control Group,"Hepa1-6 tumors, vs vehicle",0.34
same,ll6 mRNA Fold Up- or Down-Regulation Test Group/Control Group,"Hepa1-6 tumors, vs vehicle",−2.95
same,ll6 mRNA X axis (Log2(fold change)),"Hepa1-6 tumors, vs vehicle",−1.56
same,ll7 mRNA Fold Change Test Group/Control Group,"Hepa1-6 tumors, vs vehicle",0.97
same,ll7 mRNA Fold Up- or Down-Regulation Test Group/Control Group,"Hepa1-6 tumors, vs vehicle",−1.04
same,ll7 mRNA X axis (Log2(fold change)),"Hepa1-6 tumors, vs vehicle",−0.05
same,ll9 mRNA Fold Change Test Group/Control Group,"Hepa1-6 tumors, vs vehicle",0.27
same,ll9 mRNA Fold Up- or Down-Regulation Test Group/Control Group,"Hepa1-6 tumors, vs vehicle",−3.69
same,ll9 mRNA X axis (Log2(fold change)),"Hepa1-6 tumors, vs vehicle",−1.88
same,ll10 mRNA Fold Change Test Group/Control Group,"Hepa1-6 tumors, vs vehicle",0.23
same,ll10 mRNA Fold Up- or Down-Regulation Test Group/Control Group,"Hepa1-6 tumors, vs vehicle",−4.42
same,ll10 mRNA X axis (Log2(fold change)),"Hepa1-6 tumors, vs vehicle",−2.14
same,ll11 mRNA Fold Change Test Group/Control Group,"Hepa1-6 tumors, vs vehicle",0.24
same,ll11 mRNA Fold Up- or Down-Regulation Test Group/Control Group,"Hepa1-6 tumors, vs vehicle",−4.12
same,ll11 mRNA X axis (Log2(fold change)),"Hepa1-6 tumors, vs vehicle",−2.04
same,ll12a mRNA Fold Change Test Group/Control Group,"Hepa1-6 tumors, vs vehicle",0.48
same,ll12a mRNA Fold Up- or Down-Regulation Test Group/Control Group,"Hepa1-6 tumors, vs vehicle",−2.07
same,ll12a mRNA X axis (Log2(fold change)),"Hepa1-6 tumors, vs vehicle",−1.05
same,ll12b mRNA Fold Change Test Group/Control Group,"Hepa1-6 tumors, vs vehicle",0.29
same,ll12b mRNA Fold Up- or Down-Regulation Test Group/Control Group,"Hepa1-6 tumors, vs vehicle",−3.51
same,ll12b mRNA X axis (Log2(fold change)),"Hepa1-6 tumors, vs vehicle",−1.81
same,ll13 mRNA Fold Change Test Group/Control Group,"Hepa1-6 tumors, vs vehicle",0.32
same,ll13 mRNA Fold Up- or Down-Regulation Test Group/Control Group,"Hepa1-6 tumors, vs vehicle",−3.14
same,ll13 mRNA X axis (Log2(fold change)),"Hepa1-6 tumors, vs vehicle",−1.65
same,ll15 mRNA Fold Change Test Group/Control Group,"Hepa1-6 tumors, vs vehicle",0.84
same,ll15 mRNA Fold Up- or Down-Regulation Test Group/Control Group,"Hepa1-6 tumors, vs vehicle",1.19
same,ll15 mRNA X axis (Log2(fold change)),"Hepa1-6 tumors, vs vehicle",−0.25
same,ll16 mRNA Fold Change Test Group/Control Group,"Hepa1-6 tumors, vs vehicle",0.53
same,ll16 mRNA Fold Up- or Down-Regulation Test Group/Control Group,"Hepa1-6 tumors, vs vehicle",−1.90
same,ll16 mRNA X axis (Log2(fold change)),"Hepa1-6 tumors, vs vehicle",−0.93
same,ll17a mRNA Fold Change Test Group/Control Group,"Hepa1-6 tumors, vs vehicle",0.33
same,ll17a mRNA Fold Up- or Down-Regulation Test Group/Control Group,"Hepa1-6 tumors, vs vehicle",−3.00
same,ll17a mRNA X axis (Log2(fold change)),"Hepa1-6 tumors, vs vehicle",−1.59
same,ll17f mRNA Fold Change Test Group/Control Group,"Hepa1-6 tumors, vs vehicle",0.75
same,ll17f mRNA Fold Up- or Down-Regulation Test Group/Control Group,"Hepa1-6 tumors, vs vehicle",−1.33
same,ll17f mRNA X axis (Log2(fold change)),"Hepa1-6 tumors, vs vehicle",−0.41
same,ll18 mRNA Fold Change Test Group/Control Group,"Hepa1-6 tumors, vs vehicle",0.89
same,ll18 mRNA Fold Up- or Down-Regulation Test Group/Control Group,"Hepa1-6 tumors, vs vehicle",−1.13
same,ll18 mRNA X axis (Log2(fold change)),"Hepa1-6 tumors, vs vehicle",−0.17
same,ll21 mRNA Fold Change Test Group/Control Group,"Hepa1-6 tumors, vs vehicle",0.29
same,ll21 mRNA Fold Up- or Down-Regulation Test Group/Control Group,"Hepa1-6 tumors, vs vehicle",−3.46
same,ll21 mRNA X axis (Log2(fold change)),"Hepa1-6 tumors, vs vehicle",−1.79
same,ll22 mRNA Fold Change Test Group/Control Group,"Hepa1-6 tumors, vs vehicle",0.37
same,ll22 mRNA Fold Up- or Down-Regulation Test Group/Control Group,"Hepa1-6 tumors, vs vehicle",−2.67
same,ll22 mRNA X axis (Log2(fold change)),"Hepa1-6 tumors, vs vehicle",−1.42
same,ll23a mRNA Fold Change Test Group/Control Group,"Hepa1-6 tumors, vs vehicle",0.44
same,ll23a mRNA Fold Up- or Down-Regulation Test Group/Control Group,"Hepa1-6 tumors, vs vehicle",−2.25
same,ll23a mRNA X axis (Log2(fold change)),"Hepa1-6 tumors, vs vehicle",−1.17
same,ll24 mRNA Fold Change Test Group/Control Group,"Hepa1-6 tumors, vs vehicle",0.43
same,ll24 mRNA Fold Up- or Down-Regulation Test Group/Control Group,"Hepa1-6 tumors, vs vehicle",−2.34
same,ll24 mRNA X axis (Log2(fold change)),"Hepa1-6 tumors, vs vehicle",−1.23
same,ll27 mRNA Fold Change Test Group/Control Group,"Hepa1-6 tumors, vs vehicle",0.46
same,ll27 mRNA Fold Up- or Down-Regulation Test Group/Control Group,"Hepa1-6 tumors, vs vehicle",−2.19
same,ll27 mRNA X axis (Log2(fold change)),"Hepa1-6 tumors, vs vehicle",−1.13
same,number of mRNAs with decreased expression,[1],40 mRNAs
same,number of mRNAs with increased expression,[1],5 mRNAs
